Several values for one entry are separate records, joined by “and”; a condition that tells them apart may be missing. Identical values can stand only once.
Assays:
[1] = tested on: patients with PD; test: Phase 2 trial Stage 2: CNS symptoms (UPDRS, MMSE, BDI-II, PDHQ, hallucinations); type: in vivo, human
Source text: (8) Beck Depression Inventory (BDI-II);
(9) Unified Parkinson's Disease Rating Scale (UPDRS), which consists of 42 items in four subscales (Part I=Non-Motor Aspects of Experiences of Daily Living (nM-EDL) (1.1 cognitive impairment, 1.2 hallucinations and psychosis, 1.3 depressed mood, Part II=Motor Aspects of Experiences of Daily Living (M-EDL), Part III=Motor Examination, and Part IV=Motor Complications;
(10) Mini Mental State Examination (MMSE);
(12) The University of Miami Parkinson's Disease Hallucinations Questionnaire (UM-PDHQ);
Exploratory end-points, in addition to constipation, included for example, (i) depression assessed using the Beck Depression Inventory (BDI-II) (Steer et al. 2000) and Unified Parkinson's Disease Rating Scale (UPDRS); (ii) cognition assessed using the Mini Mental State Examination (MMSE) (Palsteia et al. 2018), Unified Parkinson's Disease Rating Scale (UPDRS), and Trail Making Test (TMT); (iii) sleep and REM-behavior disorder (RBD) using a daily sleep diary, I-Button Temperature Assessment, a REM sleep behavior disorder (RBD) questionnaire (RBDQ) (Stiasny-Kolster et al. 2007), and the UPDRS; (iv) hallucinations assessed using the PD hallucinations questionnaire (PDHQ) (Papapetropoulos et al. 2008), the UPDRS, and direct questioning; (v) fatigue using the Parkinson's Disease Fatigue Scale (PFS-16) and the UPDRS; (vi) motor functions using the UPDRS; and (vii) non-motor functions using the UPDRS.
Assessments were made at baseline and at the end of the fixed dose and washout periods. Circadian system status was evaluated by continuously monitoring wrist skin temperature (Thermochron iButton DS1921H; Maxim, Dallas) following published procedures (Sarabia et al. 2008).
CNS Symptoms in Stage 2: An exploratory analysis was done with respect to the sleep data, the body temperature data, mood, fatigue, hallucinations, cognition and other motor and non-motor symptoms of PD. Continuous measurements within a subject were compared with a paired t-test and continuous measurements between subject groups were compared with a two-group t-test. Categorical data were compared with a chi-squared test or a Fisher's exact test if the expected cell counts are too small for a chi-squared test.
CNS symptoms: CNS symptoms were evaluated at baseline and at the end of the fixed dose period and the wash-out period (Table 16). Total UPDRS score was 64.4 at baseline, 60.6 at the end of the fixed dose period and 55.7 at the end of the wash-out period (p=0.002); similarly, the motor component of the UPDRS improved from 35.3 at baseline to 33.3 at the end of fixed dose to 30.2 at the end of wash-out (p=0.006). MMSE improved from 28.4 at baseline to 28.7 during treatment and to 29.3 during wash-out (p=0.0006). […] PDHQ improved from 1.3 at baseline to 1.8 during treatment and 0.9 during wash-out (p=0.03). Hallucinations were reported by 5 patients at baseline and delusions in 1 patient. […] The frequency of arm or leg thrashing reported in the sleep diary diminished progressively from 2.2 episodes/week at baseline to 0 at maximal dose. […] Unlike stool-related indices, the improvement in many CNS symptoms persisted during wash-out.

[2] = tested on: patients with PD and constipation; test: Phase 2 trial: adverse events, all dosed patients (Stage 1 and 2); type: in vivo, human
Method: Safety and Adverse Event (AE) Profile: Fifty patients were enrolled and 44 were dosed. In Stage 1, 10 patients were dosed, 1 (10%) withdrew prior to completion and 9 (90%) completed dosing. In stage 2, 6 (15%) patients had ≥3 CSBM/week at the end of the run-in period and were excluded, 34 patients were dosed and bowel response was assessable in 31 (91%). Two patients (5.8%) were terminated prior to completion because of recurrent dizziness, and 3 others withdrew during dosing (8.8%): 2 because of diarrhea and 1 because of holiday. Fifteen patients were randomized.
Most AEs were confined to the GI tract (88% in Stage 1 and 63% in Stage 2). The most common AE was nausea which occurred in 4/10 (40%) patients in Stage 1 and in 18/34 (52.9%) in Stage 2 (Table 6). Diarrhea occurred in 4/10 (40%) patients in Stage 1 and 15/34 (44%) in Stage 2. One patient withdrew because of recurrent diarrhea. Other GI related AEs included abdominal pain 11/44 […], flatulence 3/44 (6.8%), vomiting 3/44 (6.8%), worsening of acid reflux 2/44 (4.5%), and worsening of hemorrhoids 1/44 (2.2%). […] The only other noteworthy AE was dizziness 8/44 (18%). Dizziness was graded as moderate in one patient who was receiving an alpha-adrenergic blocking agent (Terazosin). This patient was withdrawn from the study and recovered spontaneously.

[3] = tested on: patients with PD and constipation; details: in vivo
Method: In Stage 1, ten (10) PD patients received a single escalating dose of squalamine (ENT-01) every 3-7 days beginning at 25 mg and continuing up to 200 mg or the limit of tolerability, followed by 2-weeks of wash-out. Duration of this part of the trial was 22-57 days. The 10 subjects in the sentinel group were assigned to Cohort 1 and participated in 8 single dosing periods. Tolerability limits included diarrhea or vomiting.
Each dose period was staggered, so that subjects 1-2 were administered a single dose of the drug at the lowest dose of 25 mg. Once 24 hours have elapsed, and provided there are no safety concerns, the patient was sent home and brought back on day 4-8 for the next dose. During the days the subjects are home, they completed the daily diaries and e-mailed them to the study coordinators. Subjects 3-10 were dosed after the first 2 subjects have been observed for 72 hours, i.e. on Day 4. Subjects 1-2 were also brought back on Day 4-8 and given a single dose of 50 mg. Once another 24 hours have elapsed and provided there are no safety concerns, the patients were all sent home and instructed to return on Day 7 for the next dosing level. This single dosing regimen was continued until each subject was given a single dose of 200 mg or has reached a dose limiting toxicity (DLT). DLT was the dose which induces repeated vomiting, diarrhea, abdominal pain or symptomatic postural hypotension within 24 hours of dosing.
Adverse events were coded using the current version of MedDRA. Severity of AEs were assessed by investigators according to CTCAE (v4.03): Grade 1 is labeled as Mild, Grade 2 as Moderate, and Grade 3 and above as Severe. […] The number (percentage) of subjects who experienced an AE during escalation and fixed dosing periods were summarized by dose level and overall for each stage. The denominator for calculating the percentages were based on the number of subjects ever exposed to each dose and overall.

CC(C)[C@@H](CC[C@@H](C)[C@H]1CC[C@H]2[C@@H]3[C@H](O)C[C@H]4C[C@@H](NCCCNCCCCN)CC[C@]4(C)[C@H]3CC[C@]12C)OS(=O)(=O)O (single isomer, unassigned; ent-01) [ENT-01]
PDHQ, Fixed dose (Mean, SD) ([1]; Stage 2, end of fixed dose period, baseline 1.3 (2.99)): 1.8 | BDI-II, Fixed dose (Mean, SD) ([1]; Stage 2, end of fixed dose period, baseline 10.9 (7.12)): 9.9 | UPDRS Part 1 (NMS), Fixed dose (Mean, SD) ([1]; Stage 2, end of fixed dose period, baseline 11.6 (6.51)): 10.6 | UPDRS Part 2 (Daily living), Fixed dose (Mean, SD) ([1]; Stage 2, end of fixed dose period, baseline 14.9 (8.11)): 14.7 | MMSE, Fixed dose (Mean, SD) ([1]; Stage 2, end of fixed dose period, baseline 28.4 (1.75)): 28.7 | UPDRS Part 3 (Motor), Fixed dose (Mean, SD) ([1]; Stage 2, end of fixed dose period, baseline 35.3 (14.35)): 33.3 | UPDRS Total, Fixed dose (Mean, SD) ([1]; Stage 2, end of fixed dose period, baseline 64.4 (23.72)): 60.6 | PDHQ, Wash-out (Mean, SD) ([1]; Stage 2, end of wash-out period, baseline 1.3 (2.99)): 0.9 (2.33) | BDI-II, Wash-out (Mean, SD) ([1]; Stage 2, end of wash-out period, baseline 10.9 (7.12)): 8.7 (5.19) | UPDRS Part 1 (NMS), Wash-out (Mean, SD) ([1]; Stage 2, end of wash-out period, baseline 11.6 (6.51)): 9.5 (5.27) | UPDRS Part 2 (Daily living), Wash-out (Mean, SD) ([1]; Stage 2, end of wash-out period, baseline 14.9 (8.11)): 14.1 (8.21) | MMSE, Wash-out (Mean, SD) ([1]; Stage 2, end of wash-out period, baseline 28.4 (1.75)): 29.3 (1.06) | UPDRS Part 3 (Motor), Wash-out (Mean, SD) ([1]; Stage 2, end of wash-out period, baseline 35.3 (14.35)): 30.2 (13.23) | UPDRS Total, Wash-out (Mean, SD) ([1]; Stage 2, end of wash-out period, baseline 64.4 (23.72)): 55.7 (23.69) | hallucinations in one patient ([1]; at 100 mg (prokinetic dose of this patient 175 mg)): disappeared | BDI-II ([1]; at wash-out): 8.7 | patients in whom hallucinations and delusions improved or disappeared ([1]; during treatment): 5 of 6 | PDHQ ([1]; during treatment, baseline 1.3): 1.8 | BDI-II ([1]; during treatment, baseline 10.9): 9.9 | MMSE ([1]; during treatment, baseline 28.4): 28.7 | MMSE ([1]; during wash-out): 29.3 | PDHQ ([1]; during wash-out): 0.9 | motor component of the UPDRS ([1]; end of fixed dose, baseline 35.3): 33.3 | Total UPDRS score ([1]; end of the fixed dose period, baseline 64.4): 60.6 | Total UPDRS score ([1]; end of the wash-out period): 55.7 | motor component of the UPDRS ([1]; end of wash-out): 30.2 | time free of hallucinations following cessation of dosing ([1]; one patient): 1 month | time without return of hallucinations/delusions following discontinuation ([1]; single patients): 4 weeks and 2 weeks | worsening of hemorrhoids ([2]; 1/44): 2.2% | worsening of acid reflux ([2]; 2/44): 4.5% | flatulence ([2]; 3/44): 6.8% | vomiting ([2]; 3/44): 6.8% | dizziness ([2]; 8/44): 18% | abdominal pain ([2]; 11/44): 32% | Eye infection, Moderate [3]: 0 n, %

From patent publication US11083735B2, “Methods for treating sleep disorders, sleep disturbances, and related symptoms using aminosterol compositions” (Enterin, Inc., priority 2017, dated 2021)
